Experimental findings from patent US20120136583A1, “METHOD FOR PREDICTING EFFICACY OF DRUGS IN A PATIENT” (WORLDWIDE INNOVATIVE NETWORK, priority 2009, published 2012) are described below.

The test system of test [1] is primary bronchial adenocarcinoma with bilateral pulmonary metastases and asymptomatic cerebral metastases. Briefly: Clinical course under treatment, patient of Example 3. The test is classed as in vivo, human. To be noted: Example 3 patient. From the text:
A patient was diagnosized in May 2007 for a primary bronchial adenocarcinoma with bilateral pulmonary metastases and asymptomatic cerebral metastases. A surgical treatment has been carried out in November 2008 and two therapeutic lines have been used, namely thirteen cycles of cisplatin-gemcitabin for the first line and Alimta for the second one.
However, based on this score table, avastin associated with a score of 384 has been selected.

For test [2], the system named is bronchial adenocarcinoma T4 with bones and pleural metastases. To be noted: Example 2 patient.
For test [3], the system named is non-small cell lung carcinoma (NSCLC), cT4, N0, M1. Briefly: Clinical course under treatment, patient of Example 1. The test is classed as in vivo, human. The conditions noted are these: Example 1 patient.

Consider “BEVACIZUMAB: drug whose major target gene is VEGFA”, for which, in test [1], the “Clinical response / disease status under treatment” value (shortened to “Clinical response / disease status”) was “major response”.

As for `CCC1=C[C@@H]2CN(C1)Cc1c([nH]c3ccccc13)[C@@](C(=O)OC)(c1cc3c(cc1OC)N(C)[C@H]1[C@@](O)(C(=O)OC)[C@H](OC(C)=O)[C@]4(CC)C=CCN5CC[C@]31[C@@H]54)C2` [VINORELBINE], the “Clinical response / disease status” value in test [2] is “Three months later, the disease was stable, then progressed”.

For the compound `Nc1nc2[nH]cc(CCc3ccc(C(=O)N[C@@H](CCC(=O)O)C(=O)O)cc3)c2c(=O)[nH]1` [PEMETREXED], the “Clinical response / disease status” value in test [1] is recorded as “disease progression”.

For the compound `C#Cc1cccc(Nc2ncnc3cc(OCCOC)c(OCCOC)cc23)c1` [Tarceva], the “Clinical response / disease status” value in test [2] is “inefficient and led to a rapid progression”.

In the case of `CCOc1cc2ncc(C#N)c(Nc3ccc(OCc4ccccn4)c(Cl)c3)c2cc1NC(=O)/C=C/CN(C)C` [HKI 272], in test [3], the “Clinical response / disease status” value is listed as “efficient” and the “Time on treatment until disease progression” value is 37 months.
